Assay results taken from patent US9409898B2, “Substituted pyrazole compounds as CRAC modulators” (LUPIN LIMITED, priority 2012, dated 2016).

Tested on: IL-2 secretion
Experiment: Inhibition of IL-2 secretion in PHA-stimulated Jurkat T cells (ELISA)
Type: cell-based
Conditions: Homo sapiens, PHA stimulation, 20 to 24 hours, IL-2 by ELISA
Description: The CRAC channel modulatory activity of the compounds were thus evaluated by measuring the secretion of IL-2 by antigen stimulated T-cells in vitro. Alternatively, such activity can also be evaluated by assay methods known to one skilled in the art.
Inhibition of IL-2 secretion: Jurkat T cells were seeded at a density of 0.5 to 1 million cells per well in RPMI medium. Test compounds from this invention were added to the cells at different concentrations. This was followed by the addition of PHA, a T cell mitogen after 10 minutes. The cells were then incubated for 20 to 24 hours in a CO2 incubator at 37° C. After incubation with the compounds, cells were centrifuged, the supernatant was collected and processed for ELISA to quantitate the amount of IL-2 secreted. A commercial ELISA kit (R&D Systems, Inc. Minneapolis, Minn., USA) was used to estimate the IL-2 concentrations. Amount of IL-2 secreted by cells stimulated with PHA was considered as a 100% maximal signal and the decrease in amount of IL-2 secreted by cells treated with the test compounds was expressed as percent inhibition of the maximal signal. The dose response data was analyzed using 4-parametric sigmoidal dose response (variable slope) curve—fit.

COC(=O)C1(C)CC(c2cc(C(F)(F)F)n(-c3ccc(NCc4c(F)cccc4Cl)cn3)n2)=NO1 (centres unmarked) [Example 7, Methyl 3-(1-(5-((2-chloro-6-fluorobenzyl)amino)pyridin-2-yl)-5-(trifluoromethyl)-1H-pyrazol-3-yl)-5-methyl-4,5-dihydroisoxazole-5-carboxylate]
IC50: 100 to 1000 nM

Cn1nc(-c2cc(C3CC3)nn2-c2ccc(NCc3c(F)cccc3F)cn2)oc1=O [Example 3, 5-(3-Cyclopropyl-1-(5-((2,6-difluorobenzyl)amino)pyridin-2-yl)-1H-pyrazol-5-yl)-3-methyl-1,3,4-oxadiazol-2(3H)-one]
IC50: 100 to 1000 nM

COC(=O)C1(C)CC(c2cc(C(F)(F)F)n(-c3ccc(NCc4c(F)cccc4F)cn3)n2)=NO1 (centres unmarked) [Example 6, Methyl 3-(1-(5-((2,6-difluorobenzyl)amino)pyridin-2-yl)-5-(trifluoromethyl)-1H-pyrazol-3-yl)-5-methyl-4,5-dihydroisoxazole-5-carboxylate]
IC50: 100 to 1000 nM

CC1(CO)CC(c2cc(C(F)(F)F)n(-c3ccc(NCc4c(F)cccc4Cl)cn3)n2)=NO1 (centres unmarked) [Example 34, (3-(1-(5-((2-Chloro-6-fluorobenzyl)amino)pyridin-2-yl)-5-(trifluoromethyl)-1H-pyrazol-3-yl)-5-methyl-4,5-dihydroisoxazol-5-yl)methanol]
IC50: 100 to 1000 nM

CN1N=C(c2cc(C(F)(F)F)n(-c3ccc(NC(=O)c4c(F)cccc4F)cn3)n2)C(C)(C)C1=O [Example 16, 2,6-Difluoro-N-(6-(1′,4′,4′-trimethyl-5′-oxo-5-(trifluoromethyl)-4′,5′-dihydro-1H,1′H-[3,3′-bipyrazol]-1-yl)pyridin-3-yl)benzamide]
IC50: 100 to 1000 nM

CC1(C)COC(c2cc(C(F)(F)F)n(-c3ccc(NCc4c(F)cccc4F)cn3)n2)=N1 [Example 28, N-(2,6-Difluorobenzyl)-6-(3-(4,4-dimethyl-4,5-dihydrooxazol-2-yl)-5-(trifluoromethyl)-1H-pyrazol-1-yl)pyridin-3-amine]
IC50: 100 to 1000 nM

Cn1nc(-c2cc(C(F)(F)F)nn2-c2ccc(NC(=O)c3c(F)cccc3F)cn2)oc1=O [Example 1, 2,6-Difluoro-N-(6-(5-(4-methyl-5-oxo-4,5-dihydro-1,3,4-oxadiazol-2-yl)-3-(trifluoromethyl)-1H-pyrazol-1-yl)pyridin-3-yl)benzamide]
IC50: 100 to 1000 nM

Cc1ccccc1C(=O)Nc1ccc(-n2nc(-c3nn(C)c(=O)o3)cc2C(F)(F)F)cn1 [Example 48, 2-Methyl-N-(5-(3-(4-methyl-5-oxo-4,5-dihydro-1,3,4-oxadiazol-2-yl)-5-(trifluoromethyl)-1H-pyrazol-1-yl)pyridin-2-yl)benzamide]
IC50: < 100 nM

CN1N=C(c2cc(C(F)(F)F)n(-c3ccc(NCc4c(F)cccc4Cl)cn3)n2)C(C)(C)C1=O [Example 25, 1′-(5-((2-Chloro-6-fluorobenzyl)amino)pyridin-2-yl)-1,4,4-trimethyl-5′-(trifluoromethyl)-1H,1′H-[3,3′-bipyrazol]-5(4H)-one]
IC50: 100 to 1000 nM

Cn1c(-c2cc(C(F)(F)F)n(-c3ccc(NCc4c(F)cccc4F)cn3)n2)noc1=O [Example 26, 3-(1-(5-((2,6-Difluorobenzyl)amino)pyridin-2-yl)-5-(trifluoromethyl)-1H-pyrazol-3-yl)-4-methyl-1,2,4-oxadiazol-5(4H)-one]
IC50: 100 to 1000 nM

Cn1nc(-c2cc(CF)n(-c3ccc(NCc4c(F)cccc4F)cn3)n2)oc1=O [Example 5, 5-(1-(5-((2,6-Difluorobenzyl)amino)pyridin-2-yl)-5-(fluoromethyl)-1H-pyrazol-3-yl)-3-methyl-1,3,4-oxadiazol-2(3H)-one]
IC50: 100 to 1000 nM

CCc1ccc(C(=O)Nc2ccc(-n3nc(-c4nn(C)c(=O)o4)cc3C(F)(F)F)cn2)cc1 [Example 49, 4-Ethyl-N-(5-(3-(4-methyl-5-oxo-4,5-dihydro-1,3,4-oxadiazol-2-yl)-5-(trifluoromethyl)-1H-pyrazol-1-yl)pyridin-2-yl)benzamide]
IC50: 100 to 1000 nM

CC1(C)ON=C(c2cc(C(F)(F)F)n(-c3ccc(NC(=O)c4c(F)cccc4F)cn3)n2)C1=O [Example 14, N-(6-(3-(5,5-Dimethyl-4-oxo-4,5-dihydroisoxazol-3-yl)-5-(trifluoromethyl)-1H-pyrazol-1-yl)pyridin-3-yl)-2,6-difluorobenzamide]
IC50: < 100 nM

Cn1nc(-c2cc(C(F)(F)F)n(-c3ccc(NC(=O)c4c(F)cccc4Cl)cn3)n2)oc1=O [Example 9, 2-Chloro-6-fluoro-N-(6-(3-(4-methyl-5-oxo-4,5-dihydro-1,3,4-oxadiazol-2-yl)-5-(trifluoromethyl)-1H-pyrazol-1-yl)pyridin-3-yl)benzamide]
IC50: < 100 nM

Cc1cc(-c2nn(C)c(=O)o2)nn1-c1ccc(NCc2c(F)cccc2F)cn1 [Example 32, 5-(1-(5-((2,6-Difluorobenzyl)amino)pyridin-2-yl)-5-methyl-1H-pyrazol-3-yl)-3-methyl-1,3,4-oxadiazol-2(3H)-one]
IC50: < 100 nM

Cn1nc(-c2cc(C(F)F)nn2-c2ccc(NC(=O)c3c(F)cccc3F)cn2)oc1=O [Example 4, N-(6-(3-(Difluoromethyl)-5-(4-methyl-5-oxo-4,5-dihydro-1,3,4-oxadiazol-2-yl)-1H-pyrazol-1-yl)pyridin-3-yl)-2,6-difluorobenzamide]
IC50: > 1000 nM

Cn1nc(-c2cc(C(F)F)n(-c3ccc(NCc4c(F)cccc4F)cn3)n2)oc1=O [Example 12, 5-(1-(5-((2,6-Difluorobenzyl)amino)pyridin-2-yl)-5-(difluoromethyl)-1H-pyrazol-3-yl)-3-methyl-1,3,4-oxadiazol-2(3H)-one]
IC50: < 100 nM

Cn1nc(-c2cc(C3CC3)nn2-c2ccc(NC(=O)c3c(F)cccc3F)cn2)oc1=O [Example 30, N-(6-(3-Cyclopropyl 5-(4-methyl-5-oxo-4,5-dihydro-1,3,4-oxadiazol-2-yl)-1H-pyrazol-1-yl)pyridin-3-yl)-2,6-difluorobenzamide]
IC50: 100 to 1000 nM

Cn1nc(-c2cc(C(F)F)n(-c3ccc(NC(=O)c4c(F)cccc4F)cn3)n2)oc1=O [Example 11, N-(6-(5-(Difluoromethyl)-3-(4-methyl-5-oxo-4,5-dihydro-1,3,4-oxadiazol-2-yl)-1H-pyrazol-1-yl)pyridin-3-yl)-2,6-difluorobenzamide]
IC50: < 100 nM

CN1N=C(c2cc(C(F)(F)F)n(-c3ccc(NCc4c(F)cccc4F)cn3)n2)C(C)(C)C1=O [Example 24, 1′-(5-((2,6-Difluorobenzyl)amino)pyridin-2-yl)-1,4,4-trimethyl-5′-(trifluoromethyl)-1H,1′H-[3,3′-bipyrazol]-5(4H)-one]
IC50: 100 to 1000 nM

Cn1nc(-c2cc(C(F)(F)F)n(-c3ccc(NCc4c(F)cccc4Cl)cn3)n2)oc1=O [Example 23, 5-(1-(5-((2-Chloro-6-fluorobenzyl)amino)pyridin-2-yl)-5-(trifluoromethyl)-1H-pyrazol-3-yl)-3-methyl-1,3,4-oxadiazol-2(3H)-one]
IC50: < 100 nM

Cn1nc(-c2cc(C(F)(F)F)n(-c3ccc(NC(=O)c4ccc(F)c(F)c4F)nc3)n2)oc1=O [Example 44, 2,3,4-Trifluoro-N-(5-(3-(4-methyl-5-oxo-4,5-dihydro-1,3,4-oxadiazol-2-yl)-5-(trifluoromethyl)-1H-pyrazol-1-yl)pyridin-2-yl)benzamide]
IC50: < 100 nM

CC1(CO)CC(c2cc(C(F)(F)F)n(-c3ccc(NC(=O)c4c(F)cccc4F)cn3)n2)=NO1 (centres unmarked) [Example 36, 2,6-Difluoro-N-(6-(3-(5-(hydroxymethyl)-5-methyl-4,5-dihydroisoxazol-3-yl)-5-(trifluoromethyl)-1H-pyrazol-1-yl)pyridin-3-yl)benzamide]
IC50: < 100 nM

COC(=O)C1(C)CC(c2cc(C(F)(F)F)n(-c3ccc(NC(=O)c4c(F)cccc4F)cn3)n2)=NO1 (centres unmarked) [Example 35, Methyl 3-(1-(5-(2,6-difluorobenzamido)pyridin-2-yl)-5-(trifluoromethyl)-1H-pyrazol-3-yl)-5-methyl-4,5-dihydroisoxazole-5-carboxylate]
IC50: 100 to 1000 nM

CC1(C)COC(c2cc(C(F)(F)F)n(-c3ccc(NC(=O)c4c(F)cccc4F)cn3)n2)=N1 [Example 21, N-(6-(3-(4,4-Dimethyl-4,5-dihydrooxazol-2-yl)-5-(trifluoromethyl)-1H-pyrazol-1-yl)pyridin-3-yl)-2,6-difluorobenzamide]
IC50: 100 to 1000 nM

Cn1nc(-c2cc(C(F)(F)F)n(-c3ccc(NC(=O)c4c(F)cccc4F)cn3)n2)oc1=O [Example 8, 2,6-Difluoro-N-(6-(3-(4-methyl-5-oxo-4,5-dihydro-1,3,4-oxadiazol-2-yl)-5-(trifluoromethyl)-1H-pyrazol-1-yl)pyridin-3-yl)benzamide]
IC50: < 100 nM
